The values that follow come from EP4585599A1, “NITROGEN-CONTAINING FUSED RING COMPOUND, INTERMEDIATE THEREOF, PREPARATION METHOD THEREFOR AND USE THEREOF” (Hangzhou Synrx Therapeutics Biomedical Technology Co., Ltd., priority 2022, dated 2024).

Test [1] can be described thus: cells. To be noted: Homo sapiens, DLD-1, 240 h.
The target in test [2] is T1, helicase domain of the Pol θ protein (Homo sapiens, UniProt O75417).
T1 construct: The helicase domain of the Pol θ protein was purified from insect protein expression system; made in house; host or cells: insect protein expression system
T1 sequence (O75417 102-554 limits assumed): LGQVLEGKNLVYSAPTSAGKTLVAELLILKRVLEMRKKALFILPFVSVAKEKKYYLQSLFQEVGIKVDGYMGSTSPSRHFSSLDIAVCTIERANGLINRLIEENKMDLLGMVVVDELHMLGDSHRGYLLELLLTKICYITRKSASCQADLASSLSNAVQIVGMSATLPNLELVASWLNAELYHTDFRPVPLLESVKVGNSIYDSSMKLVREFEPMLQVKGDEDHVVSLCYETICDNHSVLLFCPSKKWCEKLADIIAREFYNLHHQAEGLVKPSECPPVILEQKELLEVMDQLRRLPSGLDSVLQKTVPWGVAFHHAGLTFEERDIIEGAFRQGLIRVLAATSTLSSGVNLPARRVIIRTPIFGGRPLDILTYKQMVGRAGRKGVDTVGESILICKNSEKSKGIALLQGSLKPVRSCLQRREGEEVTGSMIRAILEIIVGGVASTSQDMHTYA
As to the kind of experiment: Biochemical Activity Assay (ADP Glo Assay) of Pol θ inhibitor, ATPase activity. To be noted: for pIC50: ADP-Glo assay, ATPase activity of Pol θ helicase domain, ssDNA substrate, read-out: Biochemical assay IC50. Background: ADP-Glo first removes unused ATP, then detects ADP through luciferase.

[3] abbreviates: read-out: Cell viability assay IC50 (nM), CTG assay, CellTiter Glo, read on Day 10, cell line not given.

pIC50: −log10 of the molar value. Where two headings read alike, the source gives them in different places.

`COc1cnc(Cl)cc1-c1cc(C)ncc1C(=O)Nc1nc2ccc(N3CCC(O)C(C)(C)C3)nc2s1` (stereo not drawn) [Example 116, 2'-chloro-N-(5-(4-hydroxy-3,3-dimethylpiperidin-1-yl)thiazol[5,4-b]pyridin-2-yl)-5'-me thoxy-6-methyl-[4,4'-bipyridine]-3-carboxamide]: the IC50 (usually the concentration that inhibits the measured activity by half) was 36.9 nM in test [1] (read-out: Cell viability assay IC50 (nM)) and 10.3 nM in test [2] (Biochemical assay IC50 (nM)).

In the case of `COc1cnc(Cl)cc1-c1cc(C)ncc1C(=O)Nc1nc2ncc(N(C)CCC(C)O)cc2s1` (stereo not drawn) [Example 117], in test [1] (setting [3]), the IC50 was 799 nM. The pIC50 (as a rule, −log10 of the IC50, conventionally taken in molar units) in test [2] is 8.14.

On to `COc1cnc(Cl)cc1-c1cc(C)ncc1C(=O)Nc1nc2ncc(N3CCC(O)C(C)(C)C3)cc2s1` (stereo not drawn) [Example 118], for which the IC50 in test [1] (setting [3]) is 23 nM. Moreover, in test [2], the negative-log IC50 (pIC50) is 8.40.

Take `COc1cnc(Cl)cc1-c1cc(C)ncc1C(=O)Nc1nc2cc(F)c(N3CCC(O)CC3)cc2s1` [Example 119]: the IC50 in test [1] (setting [3]) is 10.7 nM. In test [2], the pIC50 is 8.26.

For the compound `COc1cnc(Cl)cc1-c1cc(C)ncc1C(=O)Nc1nc2c(C#N)cc(N3CCC(O)CC3)cc2s1` [Example 120], the IC50 in test [1] (setting [3]) came to 14.2 nM. Further, the pIC50 in test [2] was 8.23.

As for `COc1cnc(Cl)cc1-c1cc2cncn2cc1C(=O)Nc1nc2cnc(N3CCC(O)CC3)cc2s1` [Example 121], in test [1] (setting [3]), the IC50 amounted to 2510 nM. Besides, the pIC50 in test [2] is 7.28.

Consider `COc1cnc(Cl)cc1-c1cc(C(F)(F)F)ncc1C(=O)Nc1nc2ccc(N3CCC(O)CC3)nc2s1` [Example 122], for which, in test [1] (setting [3]), the IC50 stood at 2710 nM. In test [2], the pIC50 was 6.84.

Turning to `COc1cnc(Cl)cc1-c1cc(C)ncc1C(=O)Nc1nc2c(F)nc(N3CCC(O)CC3)cc2s1` [Example 123], the IC50 in test [1] (setting [3]) was 24.2 nM. Moreover, the pIC50 in test [2] was 7.98.

With `COc1cnc(Cl)cc1-c1c(C(=O)Nc2nc3ccc(N4CCC(O)CC4)nc3s2)cnc(C)c1F` [Example 124], the IC50 in test [1] (setting [3]) came to 584 nM. In test [2], the pIC50 is 6.79.

With `COc1cnc(Cl)c(F)c1-c1cc(C)ncc1C(=O)Nc1nc2cc(F)c(N3CCC(O)CC3)nc2s1` [Example 125], the IC50 in test [1] (setting [3]) was 3.98 nM. The pIC50 in test [2] is 8.00.

With `COc1cnc(Cl)cc1-c1cc(C)ncc1C(=O)Nc1nc2cc(F)c(N3CCC(O)CC3)nc2s1` [Example 126], the IC50 in test [1] (setting [3]) came to 9.26 nM. Also, in test [2], the pIC50 is 8.13.

For the compound `COc1cnc(Cl)c(F)c1-c1cc(C)ncc1C(=O)Nc1nc2ncc(N3CCC(O)CC3)cc2s1` [Example 127], in test [1] (setting [3]), the IC50 came out at 15.8 nM. For the same compound, the pIC50 in test [2] was 8.45.

As to `COc1cnc(Cl)cc1-c1cc(C)ncc1C(=O)Nc1nc2ccc(N3CCC(CO)CC3)nc2s1` [Example 128], the IC50 in test [1] (setting [3]) worked out at 39.8 nM. Further, the pIC50 in test [2] is 8.01.

For `COc1cnc(Cl)c(F)c1-c1cc(C)ncc1C(=O)Nc1nc2ccc(N3CCC(CO)CC3)nc2s1` [Example 129], in test [1] (setting [3]), the IC50 turned out to be 9.68 nM. The pIC50 in test [2] is 8.09.

With `Cc1cc(-c2cc(Cl)ncc2OC(F)F)c(C(=O)Nc2nc3ccc(N4CCC(O)CC4)nc3s2)cn1` [Example 130], the IC50 in test [1] (setting [3]) came to 11 nM. In addition, the pIC50 in test [2] was 8.16.

Turning to `COc1cnc(Cl)cc1-c1cc(C)ncc1C(=O)Nc1nc2ccc(N3CCc4ccccc43)nc2s1` [Example 131], in test [1] (setting [3]), the IC50 was 736 nM. The pIC50 in test [2] was 6.83.

Consider `COc1cnc(Cl)cc1-c1cc(C)ncc1C(=O)Nc1nc2ccc(N3CCc4ccccc4C3)nc2s1` [Example 132], for which the IC50 in test [1] (setting [3]) turned out to be 158 nM. The pIC50 in test [2] was 6.79.

On to `COc1cnc(Cl)cc1-c1cc(C)ncc1C(=O)Nc1nc2ncc(N3CC4(CC(O)C4)C3)nc2s1` [Example 133], for which, in test [1] (setting [3]), the IC50 was determined as 26.1 nM. Moreover, the pIC50 in test [2] is 8.16.

For the compound `COc1cnc(Cl)cc1-c1cc(C)ncc1C(=O)Nc1nc2ncc(N3CCC(C(C)(C)O)CC3)nc2s1` [Example 134], the IC50 in test [1] (setting [3]) amounted to 5.41 nM. The pIC50 in test [2] was 8.39.

As to `COc1cnc(Cl)cc1-c1cc(C)ncc1C(=O)Nc1nc2ccc(N3CC[C@@H](O)C[C@H]3C)nc2s1` [Example 135], the IC50 in test [1] (setting [3]) was found to be 19.2 nM. For the same compound, the pIC50 in test [2] is 8.27.

Turning to `COc1cnc(Cl)cc1-c1cc(C)ncc1C(=O)Nc1nc2ccc(N3CC[C@H](O)C[C@H]3C)nc2s1` [Example 136], the IC50 in test [1] (setting [3]) came to 121 nM. In addition, the pIC50 in test [2] is 7.59.

Consider `COc1cnc(Cl)cc1-c1cc(C)ncc1C(=O)Nc1nc2ccc(N3CCn4cncc4C3)nc2s1` [Example 137], for which the IC50 in test [1] (setting [3]) is 171 nM. Further, the negative-log IC50 (pIC50) in test [2] is 7.60.

`COc1cnc(Cl)cc1-c1cc(C)ncc1C(=O)Nc1nc2ccc(N3CCC=CC3=O)nc2s1` [Example 138]: the IC50 in test [1] (setting [3]) came out at 26.1 nM. For the same compound, the pIC50 in test [2] is 8.12.

For the compound `COc1cnc(Cl)cc1-c1cc(C)ncc1C(=O)Nc1nc2ccc(N3CCn4ccnc4C3)nc2s1` [Example 139], in test [1] (setting [3]), the IC50 was found to be 121 nM. Further, in test [2], the pIC50 was 7.72.

Consider `COc1cnc(Cl)cc1-c1cc(C)ncc1C(=O)Nc1nc2cnc(N3CC[C@@H](O)C[C@@H]3C)nc2s1` [Example 140], for which, in test [1] (setting [3]), the IC50 came out at 68.1 nM. In test [2], the pIC50 is 7.80.

As to `COc1cnc(Cl)cc1-c1cc(C)ncc1C(=O)Nc1nc2cnc(N3CC[C@@H](O)C[C@H]3C)nc2s1` [Example 141], in test [1] (setting [3]), the IC50 is 21.5 nM. The pIC50 in test [2] is 8.08.

As to `COc1cnc(Cl)cc1-c1cc(C)ncc1C(=O)Nc1nc2cnc(N3CC4(CC(O)C4)C3)nc2s1` [Example 142], the IC50 in test [1] (setting [3]) amounted to 104 nM. The pIC50 in test [2] is 8.35.

On to `COc1cnc(Cl)c(F)c1-c1cc(C)ncc1C(=O)Nc1nc2cc(F)c(N3CCC(F)(F)CC3)nc2s1` [Example 143], for which the IC50 in test [1] (setting [3]) stood at 43 nM. Besides, the pIC50 in test [2] is 7.63.

On to `COc1cnc(Cl)cc1-c1cc(C)ncc1C(=O)Nc1nc2ncc(CN3CCC(O)CC3)cc2s1` [Example 144], for which the IC50 in test [1] (setting [3]) is 2220 nM. Moreover, in test [2], the pIC50 is 7.44.

Take `COc1cnc(Cl)cc1-c1cc(C)ncc1C(=O)Nc1nc2ccc(-c3c(C)nnn3C)nc2s1` [Example 147, 2'-chloro-N-(5-(1,4-dimethyl-1H-1,2,3-triazol-5-yl)thiazolo[5,4-b]pyridin-2-yl)-5'-methoxy-6-methyl-[4,4'-bipyridine]-3-carboxamide]: the IC50 in test [1] (setting [3]) was 82.5 nM. Besides, in test [2], the pIC50 was 7.75.

In the case of `COc1cnc(Cl)cc1-c1cc(C)ncc1C(=O)Nc1nc2ccc(-c3c(C)cnn3C)cc2s1` [Example 148], the IC50 in test [1] (setting [3]) was found to be 4.13 nM. In addition, the pIC50 in test [2] is 8.31.

Turning to `[2H]C([2H])([2H])n1ncc(C)c1-c1cc2sc(NC(=O)c3cnc(C)cc3-c3cc(Cl)ncc3OC)nc2cn1` [Example 149], the IC50 in test [1] (setting [3]) was 3.54 nM. In addition, the pIC50 in test [2] is 8.64.

Regarding `COc1cnc(Cl)cc1-c1cc(C)ncc1C(=O)Nc1nc2cnc(-c3c(C)nn(C)c3C#N)cc2s1` [Example 150], in test [1] (setting [3]), the IC50 turned out to be 21.5 nM. Besides, in test [2], the pIC50 is 8.25.

Take `COc1cnc(Cl)cc1-c1cc(C)ncc1C(=O)Nc1nc2ccc(-c3c(C)cnn3C)c(F)c2s1` [Example 151]: the IC50 in test [1] (setting [3]) is 3.98 nM. In addition, the negative logarithm of the IC50 (pIC50) in test [2] was 8.07.

For the compound `COc1cnc(Cl)cc1-c1cc(C)ncc1C(=O)Nc1nc2cnc(-c3c(C)nn(C)c3C(N)=O)cc2s1` [Example 152], the IC50 in test [1] (setting [3]) came out at 17.2 nM. Moreover, the pIC50 in test [2] was 8.52.

As to `COc1cc(P(C)(C)=O)ccc1-c1cc(C)ncc1C(=O)Nc1nc2cnc(-c3c(C)cnn3C)cc2s1` [Example 153], the IC50 in test [1] (setting [3]) worked out at 545 nM. Moreover, the pIC50 in test [2] was 7.61.
